Values quoted from earlier work, collected in patent US20250170078A1, “STABLE PHARMACEUTICAL COMPOSITIONS OF HYDROXYUREA” (Slayback Pharma LLC., priority 2022, published 2025).

How the values were obtained:
[1] = oral
[2] = not given; remark: listed apart in the source
[3] = on its own
[4] = patients, dose escalation based on blood counts

NC(=O)NO [Hydroxyurea]
solubility in water: freely soluble
absorption from the gastrointestinal tract [1]: almost completely absorbed
stability in aqueous solutions [2]: poor stability
antimicrobial activity [3]: high level of antimicrobial activity
maximum tolerable dose [4]: 35 mg/kg/day
